Values quoted from earlier work in publication PMC7211203 (European Journal of Drug Metabolism and Pharmacokinetics, 2020).

What was measured:
CYP3A4 [1] = target: T1, CYP3A4 (Homo sapiens, UniProt P08684); details: 18 patients with solid tumors; cited from earlier work
CYP3A4 [2] = target: T1, CYP3A4; details: 18 patients with solid tumors, before/after design; cited from earlier work

T1 sequence (P08684 whole entry): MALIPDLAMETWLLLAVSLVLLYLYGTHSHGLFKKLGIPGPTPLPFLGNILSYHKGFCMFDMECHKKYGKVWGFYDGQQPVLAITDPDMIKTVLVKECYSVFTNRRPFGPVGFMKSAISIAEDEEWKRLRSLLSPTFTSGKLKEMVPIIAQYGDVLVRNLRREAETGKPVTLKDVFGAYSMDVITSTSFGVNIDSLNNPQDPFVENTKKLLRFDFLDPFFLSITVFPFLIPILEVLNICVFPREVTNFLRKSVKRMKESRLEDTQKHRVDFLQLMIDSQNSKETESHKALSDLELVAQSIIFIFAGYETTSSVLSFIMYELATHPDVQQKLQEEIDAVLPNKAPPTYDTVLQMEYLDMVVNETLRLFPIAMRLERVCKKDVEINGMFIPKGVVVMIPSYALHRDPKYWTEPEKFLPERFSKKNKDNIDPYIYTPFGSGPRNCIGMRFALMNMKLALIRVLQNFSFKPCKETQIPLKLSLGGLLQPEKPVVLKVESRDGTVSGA

Row | Structure (SMILES) | CYP3A4 inhibition in patients (midazolam) (CYP3A4 [1]) | Effect on the pharmacokinetics of midazolam (CYP3A4 [2])
1 | COC[C@H](NC(=O)c1cnc(C)s1)C(=O)N[C@@H](COC)C(=O)N[C@@H](Cc1ccccc1)C(=O)[C@@]1(C)CO1 [Oprozomib, oprozomib] | clinically relevant inhibition was not seen | –
2 | CC(C)C[C@H](NC(=O)[C@H](CCc1ccccc1)NC(=O)CN1CCOCC1)C(=O)N[C@@H](Cc1ccccc1)C(=O)N[C@@H](CC(C)C)C(=O)[C@@]1(C)CO1 [carfilzomib] | – | No clinically significant effects
